Experimental data from PubChem BioAssay (NCI).
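Tested at 5 concentrations; 48 h exposure; 96-well plates; endpoints linearly interpolated, else capped at highest concentration. Here, GI50 denotes the concentration required for 50% inhibition of growth. TGI: concentration producing complete growth inhibition.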

Legend:
Assay in all cases: inhibition of tumour cell growth, NCI panel, 48 h
786-0 renal = system: 786-0 renal
HOP-62 NSCLC = system: HOP-62 NSCLC
NCI-H460 lung = system: NCI-H460 lung
OVCAR-4 ovarian = system: OVCAR-4 ovarian
OVCAR-8 ovarian = system: OVCAR-8 ovarian
SK-OV-3 ovarian = system: SK-OV-3 ovarian
SN12C renal = system: SN12C renal
SR leukemia = system: SR leukemia
LOX IMVI melanoma = system: LOX IMVI melanoma

| SMILES | TGI (786-0 renal) [µM] | TGI (HOP-62 NSCLC) [µM] | TGI (NCI-H460 lung) [µM] | TGI (OVCAR-4 ovarian) [µM] | TGI (OVCAR-8 ovarian) [µM] | TGI (SK-OV-3 ovarian) [µM] | TGI (SN12C renal) [µM] | TGI (SR leukemia) [µM] | TGI (LOX IMVI melanoma) [µM] | GI50 (786-0 renal) [µM] | GI50 (HOP-62 NSCLC) [µM] | GI50 (LOX IMVI melanoma) [µM] | GI50 (OVCAR-4 ovarian) [µM] | GI50 (OVCAR-8 ovarian) [µM] | GI50 (SK-OV-3 ovarian) [µM] | GI50 (SN12C renal) [µM] |
| --- | --- | --- | --- | --- | --- | --- | --- | --- | --- | --- | --- | --- | --- | --- | --- | --- |
| Cc1cc(C)c(C(=O)c2no[n+]([O-])c2C(=O)c2c(C)cc(C)c(Br)c2C)c(C)c1Br | 32.8 | 33.4 | 45.8 | 50 | 27.1 | 52.3 | 33.4 | 8.42 |  |  |  |  |  |  |  |  |
| CN1CC[C@]2(C)c3ccc(O)cc3CC3CCCC1C32C (stereo partly specified) | > 100 | > 100 | > 100 |  | > 100 | > 100 | > 100 | > 100 | > 100 |  |  |  |  |  |  |  |
| NC(=S)NNc1c([N+](=O)[O-])cnn(-c2ccccc2)c1=O | 35.1 | 34.4 | 34 | 31.8 | 31.8 | 36 | 31.4 | > 100 | 23.7 |  |  |  |  |  |  |  |
| CC[O-].CC[O-].O=S(=O)([O-])c1ccc([O-])c2ncccc12.O=S(=O)([O-])c1ccc([O-])c2ncccc12.[Ti+4] | > 100 | > 100 |  | > 100 | > 100 | > 100 | > 100 |  | > 100 | 49 | 44 | 28.3 | 52.9 | 74.5 | > 100 | > 100 |
| NCCCCNc1ccc2c(=O)[nH][nH]c(=O)c2c1 | > 100 | > 100 |  | > 100 | > 100 | > 100 | > 100 | > 100 | > 100 |  |  |  |  |  |  |  |
| Cc1ccccc1C1=C(C(=O)Nc2ccc(Cl)c(Cl)c2)NC(=S)NC1N (stereo unspecified) | > 100 |  | > 100 | > 100 | > 100 | > 100 | > 100 |  | > 100 |  |  |  |  |  |  |  |
| CCOC(=O)c1cc(/C=C/C(C)=C/C(=O)OC)oc1C | > 100 | > 100 | > 100 | > 100 | > 100 | > 100 |  | > 100 | > 100 |  |  |  |  |  |  |  |
| CC1=C(C(=O)Nc2cccc(Cl)c2)C(c2ccccc2F)C(C(=O)Nc2cccc(Cl)c2)=C(C)N1 | 32.2 | 31.3 | 24.1 | 21.3 | 46.9 | 55.5 | 23 |  | 21.1 |  |  |  |  |  |  |  |
| CN(C)/N=C(/c1nc2ccc(Cl)cc2[nH]c1=O)C(O)c1ccc(C(O)/C(=N\N(C)C)c2nc3ccc(Cl)cc3[nH]c2=O)cc1 (stereo unspecified) | > 100 | > 100 | > 100 | > 100 | > 100 | > 100 | > 100 | > 100 |  |  |  |  |  |  |  |  |
| CCCCN(CCCC)c1c([N+](=O)[O-])c(=O)nc2ccccn12 | > 100 | 73.6 | 79.4 |  | 94.6 | > 100 | > 100 | > 100 |  |  |  |  |  |  |  |  |
| COc1ccc(/C=C2\CCCC(C(NO)c3ccc(OC)cc3)C2=NO)cc1 (stereo unspecified) | > 100 | > 100 | > 100 | > 100 | > 100 | > 100 | > 100 |  |  |  |  |  |  |  |  |  |
| CCOC(=O)/C=C1\CCCC12OCCO2 | > 100 | > 100 | > 100 | > 100 | > 100 | > 100 | > 100 | > 100 |  |  |  |  |  |  |  |  |
| O=[N+]([O-])c1cnn(C2=CNc3ccccc3N=C2)c1 | > 100 | > 100 | > 100 |  | > 100 | > 100 | > 100 | > 100 |  |  |  |  |  |  |  |  |
| O=C(c1ccncc1)n1nc(-c2ccccc2)c(N=Nc2ccccc2[N+](=O)[O-])c1-c1ccccc1 | > 100 | > 100 |  | > 100 | > 100 | > 100 | > 100 | > 100 |  |  |  |  |  |  |  |  |
| COc1ccc(/C=C\c2cc(OC)c(O[Si](C)(C)C(C)(C)C)c(OC)c2)cc1 | > 100 | > 100 | > 100 | > 100 | > 100 | > 100 | > 100 | 56.2 |  |  |  |  |  |  |  |  |
| CCC1=NC(CO)[C@H](c2ccccc2)O1 (stereo partly specified) | > 100 | > 100 | > 100 | > 100 | > 100 |  | > 100 | > 100 | > 100 |  |  |  |  |  |  |  |
| CC(=O)NC(CCCCNC(=O)NCCCl)C(=O)NCc1ccccc1 (stereo unspecified) | > 100 | > 100 | > 100 | > 100 | > 100 |  | > 100 | > 100 |  |  |  |  |  |  |  |  |
| Cc1cccc(C)c1NC(=O)C1C(=O)N(c2c(C)cccc2C)C(=O)/C1=N\NC(N)=S (stereo unspecified) | > 100 | > 100 | > 100 | > 100 | > 100 |  | > 100 |  |  |  |  |  |  |  |  |  |
| COC(=O)C(=O)C(C(=O)C(=O)Nc1cccc(C(C)=O)c1)c1nc2ccccc2[nH]c1=O (stereo unspecified) | > 100 |  | > 100 | > 100 |  | > 100 |  |  | > 100 |  |  |  |  |  |  |  |
| Cc1ccc(-c2cc(-c3ccco3)c(C#N)c(=O)n2C2OC(OC(=O)c3ccccc3)C(OC(=O)c3ccccc3)C2OC(=O)c2ccccc2)cc1 (stereo unspecified) | > 100 | > 100 | > 100 |  | > 100 | > 100 | > 100 | > 100 | > 100 |  |  |  |  |  |  |  |
